“And” between values parts separate entries of the source, which are not always exact repeats. Equal values may be shown once. Read-outs that look alike come from different tables or passages of the source.
Target: T1, human recombinant active HPK1 (Homo sapiens, UniProt Q92918)
T1 construct: purchased Reaction Biology Corp., Malvern, PA, USA (contract assay)
Experiment: radiometric HotSpot kinase assay (33P-ATP, myelin basic protein substrate)
Assay type: biochemical
Settings: for inhibition at 25 µM: 25 µM compound; for inhibition at 25 µM / inhibition at 50 µM: duplicate; for inhibition at 50 µM: 50 µM compound
Procedure: The in vitro inhibitory activity of the fifteen purchased compounds against recombinant human HPK1 was evaluated using a radiometric HotSpot^TM kinase assay. The results were expressed as a percentage of the remaining kinase activity relative to its activity in negative control reactions (DMSO). […] Six hits (ISR-03, ISR-04, ISR-05, ISR-10, ISR-13, and ISR-11) were selected for IC50 value determination.
The selected compounds were purchased from ASINEX (ASINEX, Amsterdam, The Netherlands) and OTAVA lead-like (OTAVA Ltd., Vaughan, ON, Canada) via local vendors. […] In brief, this assay was performed by preparing the kinase substrate (myelin basic protein) with a concentration of 20 µM in freshly prepared base reaction buffer (20.0 mM Hepes (pH 7.5), 10.0 mM MgCl2, 1.0 mM EGTA, 0.01% Brij35, 0.02 mg/mL BSA, 0.1 mM Na3VO4, 2.0 mM DTT, and 1% DMSO). Then, the kinase enzyme was delivered into the substrate solution by gently mixing, followed by adding the tested compounds dissolved in 100% DMSO using the Echo550 liquid handler and incubated for 20 min at room temperature. Finally, the reaction was initiated by the addition of ^33P-γ-ATP with a concentration of 10.0 µM and incubated for 2 h at room temperature. The percentage of kinase activity was detected using the P81 filter-binding method. For IC50 determination, the compounds’ inhibitory activity was tested at 10 concentrations (100 µM, 33.3 µM, 11.10 µM, 3.70 µM, 1.23 µM, 0.412 µM, 0.137 µM, 45.70 nM, 15.20 nM, and 5.08 nM) in one independent experiment in duplicate mode and prepared using 3-fold serial dilutions. The percentage of remaining kinase activity in tested samples was determined first, and then Prism GraphPad software version 10.2.0 (nonlinear regression/variable slope) was used to obtain the IC50 values and curve fits.

[1] = 10 concentrations, 3-fold dilution from 100 µM, 10 µM ATP, mean ± SD where given, read-out: IC50
[2] = Prism fit table of single inhibition curve (A/B replicate), Figure 3, unit inferred, read-out: EC50 (the source's name)

T1 sequence (Q92918 whole entry): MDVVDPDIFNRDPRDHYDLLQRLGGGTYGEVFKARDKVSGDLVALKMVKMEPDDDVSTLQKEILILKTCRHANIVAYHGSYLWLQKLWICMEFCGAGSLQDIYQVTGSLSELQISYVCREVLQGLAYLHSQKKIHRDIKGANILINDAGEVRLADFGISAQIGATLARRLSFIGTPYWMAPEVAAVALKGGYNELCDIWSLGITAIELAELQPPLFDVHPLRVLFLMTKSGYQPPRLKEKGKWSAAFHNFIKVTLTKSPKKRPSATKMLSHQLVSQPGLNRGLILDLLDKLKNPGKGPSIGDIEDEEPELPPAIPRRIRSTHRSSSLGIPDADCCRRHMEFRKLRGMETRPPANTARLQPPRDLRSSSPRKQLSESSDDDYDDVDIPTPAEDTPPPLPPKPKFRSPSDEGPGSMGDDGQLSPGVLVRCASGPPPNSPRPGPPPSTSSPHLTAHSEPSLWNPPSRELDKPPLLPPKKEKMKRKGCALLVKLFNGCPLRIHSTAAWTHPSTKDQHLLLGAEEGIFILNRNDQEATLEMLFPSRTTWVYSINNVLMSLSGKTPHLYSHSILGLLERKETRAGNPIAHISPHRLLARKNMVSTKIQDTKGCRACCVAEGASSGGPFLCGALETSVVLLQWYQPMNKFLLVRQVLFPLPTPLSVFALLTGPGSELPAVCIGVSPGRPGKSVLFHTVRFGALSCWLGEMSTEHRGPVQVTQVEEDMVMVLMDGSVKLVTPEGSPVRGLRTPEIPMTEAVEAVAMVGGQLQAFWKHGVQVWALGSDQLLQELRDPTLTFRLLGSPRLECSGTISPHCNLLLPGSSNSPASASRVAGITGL

inhibition at 25 µM (10 µM ATP) [%] | inhibition at 50 µM (10 µM ATP) [%] | IC50 [1] [µM] | IC50 [2] | Compound
2.44 | 10.1 | > 100 | – | CCCNC(=O)c1cc2c(=O)n3cccc(C)c3nc2s1 [ISR-04]
26.6 | 52.4 | 43.9 | 44 µM and 43.8 µM | COc1ccc2[nH]c(=O)c(CNc3ccccc3NC(C)=O)cc2c1 [ISR-03]
0 | 13.9 | 24.2 | 20.6 µM and 27.7 µM | Cc1cccn2c(=O)c3cc(C(=O)Nc4ccccc4C(N)=O)sc3nc12 [ISR-05]

Source: publication PMC12072202, “Identification of Novel HPK1 Hit Inhibitors: From In Silico Design to In Vitro Validation” (International Journal of Molecular Sciences, 2025)
